For this assay, the target named is T1, FKBP* fused to Nluc (Homo sapiens, UniProt P62942+Q96SW2, F37V).
T1 construct: Nluc (nano luciferase, fusion partner); expressed in transfected cells; host or cells: 293FT cells (wild type or CRBN-/-)
The assay is described as follows: Nluc/Fluc luciferase signal ratio assay of FKBP* degradation in 293FT cells. The assay is classed as cell-based. Conditions: wild type or CRBN −/− 293FT; indicated concentrations, 4 hours. The method, then:
FIG. 7A and FIG. 7B are graphs measuring the activity of a panel of dFKBP heterobifunctional compounds in cells expressing FKBP* fused to Nluc. Degradation of FKBP* is measured as a signal ratio (Nluc/Fluc) between NANOluc and firefly luciferase from the same multicistronic transcript in wild type (FIG. 7A) or CRBN −/− (FIG. 7B) 293FT cells treated with indicated concentrations of dFKBPs for 4 hours. A decrease in the signal ratio indicates FKBP* (Nluc) degradation.
In an effort to identify potent and selective dFKPB heterobifunctional compounds, high throughput measurements of targeted FKBP* degradation were measured by surrogate levels of luciferase. Here, FKBP* is exogenously expressed as a multicistronic transcript with two types of luciferase: nano luciferase (NLuc) and firefly luciferase (FLuc) that allow for cell normalized quantification of FKBP* protein levels. Degradation of FKBP* is measured as a signal ration (Nluc/Fluc) in wild type (FIG. 7A) or CRBN −/−(FIG. 7B) 293FT cells treated with indicated concentrations of dFKBPs for 4 hours.

T1 sequence (P62942 2-108 F37V): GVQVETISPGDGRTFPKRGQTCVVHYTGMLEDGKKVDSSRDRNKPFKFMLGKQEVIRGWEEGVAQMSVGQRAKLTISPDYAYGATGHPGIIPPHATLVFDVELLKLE
T1 sequence (Q96SW2 whole entry, the tested form may be a part): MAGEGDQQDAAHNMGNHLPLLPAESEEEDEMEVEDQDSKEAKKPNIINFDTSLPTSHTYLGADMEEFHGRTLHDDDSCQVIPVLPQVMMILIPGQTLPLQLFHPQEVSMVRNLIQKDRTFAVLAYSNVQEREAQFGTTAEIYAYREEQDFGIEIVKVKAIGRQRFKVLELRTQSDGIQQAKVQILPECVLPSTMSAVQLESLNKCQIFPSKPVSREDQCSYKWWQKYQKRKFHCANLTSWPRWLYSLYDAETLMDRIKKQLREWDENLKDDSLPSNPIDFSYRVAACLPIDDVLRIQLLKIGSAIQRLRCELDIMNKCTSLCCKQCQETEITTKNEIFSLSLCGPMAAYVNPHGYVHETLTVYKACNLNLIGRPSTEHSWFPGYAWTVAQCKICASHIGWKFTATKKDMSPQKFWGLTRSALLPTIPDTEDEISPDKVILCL
T1 sequence (Q16531 whole entry partner, the tested form may be a part): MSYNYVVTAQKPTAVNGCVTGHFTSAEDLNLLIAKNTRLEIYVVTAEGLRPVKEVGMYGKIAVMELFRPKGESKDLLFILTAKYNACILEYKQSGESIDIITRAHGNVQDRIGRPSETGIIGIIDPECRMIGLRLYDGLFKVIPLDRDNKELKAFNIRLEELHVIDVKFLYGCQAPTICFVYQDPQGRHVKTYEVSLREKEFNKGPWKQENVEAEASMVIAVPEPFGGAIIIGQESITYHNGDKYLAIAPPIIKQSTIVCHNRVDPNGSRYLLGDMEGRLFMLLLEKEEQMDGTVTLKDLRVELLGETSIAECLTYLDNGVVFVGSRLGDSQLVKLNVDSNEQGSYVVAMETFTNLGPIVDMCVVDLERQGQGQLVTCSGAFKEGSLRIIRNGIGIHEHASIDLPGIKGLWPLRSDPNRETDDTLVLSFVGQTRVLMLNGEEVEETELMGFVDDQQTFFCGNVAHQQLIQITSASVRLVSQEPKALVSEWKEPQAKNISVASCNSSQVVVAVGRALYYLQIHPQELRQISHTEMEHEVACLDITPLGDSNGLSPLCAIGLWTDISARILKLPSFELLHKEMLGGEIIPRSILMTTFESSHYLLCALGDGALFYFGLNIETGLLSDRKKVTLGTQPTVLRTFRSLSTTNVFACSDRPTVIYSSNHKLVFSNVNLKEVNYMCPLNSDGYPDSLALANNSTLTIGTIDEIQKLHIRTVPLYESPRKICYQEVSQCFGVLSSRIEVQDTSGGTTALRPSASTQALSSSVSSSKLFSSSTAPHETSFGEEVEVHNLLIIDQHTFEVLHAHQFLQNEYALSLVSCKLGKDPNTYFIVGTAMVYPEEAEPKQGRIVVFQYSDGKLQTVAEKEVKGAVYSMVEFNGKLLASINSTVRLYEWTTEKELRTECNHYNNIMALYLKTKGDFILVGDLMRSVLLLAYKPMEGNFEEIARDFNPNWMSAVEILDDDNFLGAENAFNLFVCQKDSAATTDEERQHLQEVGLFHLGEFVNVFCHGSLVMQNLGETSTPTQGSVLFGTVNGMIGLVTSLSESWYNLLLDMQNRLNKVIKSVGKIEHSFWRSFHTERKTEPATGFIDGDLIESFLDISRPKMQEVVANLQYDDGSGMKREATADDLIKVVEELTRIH

As for `CC[C@H](C(=O)N1CCCC[C@H]1C(=O)O[C@H](CCc1ccc(OC)c(OC)c1)c1cccc(OCC(=O)NCCCOCCOCCOCCCNC(=O)COc2cccc3c2C(=O)N(C2CCC(=O)NC2=O)C3=O)c1)c1cc(OC)c(OC)c(OC)c1` (stereo partly shown) [dFKBP7], the “FKBP* (Nluc) degradation, signal ratio (Nluc/Fluc)” value is “effectively degrade FKBP* in a cereblon dependent manner”.
